Patent publication US4209517A, “α-Ethylenic alcohols and ketones, their preparation, and their use as medicaments” (Unicler, priority 1978, dated 1980)
One block for each molecule: values may come before it.

Experiments:
[1] = Remarks on the hydrochloride (Table I); format: physicochemical; conditions: hydrochloride column of Table I
[2] = system: narcosis produced by hexobarbital; test: Modification of narcosis produced by hexobarbital; format: in vivo; conditions: Mus musculus, 0.5 h, mice, half an hour before hexobarbital 70 mg/kg, read-out: Narcosis potentialisation T (percentage increase in sleeping time induced by hexobarbital); for change in vivo at 200 mg/kg: 200 mg/kg IP; for change in vivo at 100 mg/kg: 100 mg/kg IP
Procedure: Mice, each weighing about 20 g, received the product under investigation by the intraperitoneal route. Half an hour later sodium hexobarbital was injected by the same route at a dosage of 70 mg/kg.
The animals were placed on a hot plate kept at a constant temperature of 27° C. It is considered that sleep is established when a mouse, placed in the dorsal decubitus, is incapable of turning over and standing on its paws.
The narcosis potentialisation is evaluated by the percentage increase in sleeping time induced by hexobarbital (T).

[3] = Toxicity: LD50 in mice, intraperitoneal route (Log-Probits method of Miller and Tainter); conditions: mouse, in vivo, IP
Procedure: The LD50 of the products was measured in mice by the intraperitoneal route in accordance with the "Log-Probits" method of Miller and Tainter (Proc. Soc. Exptl. Biol. Med. 1944; 57, 261-264).

[4] = system: blepharospasm caused by reserpine; test: Antagonism to reserpine (blepharospasm); format: in vivo; set-up: key: The inhibition of blepharospasm is marked from 0 to +++; ±: The inhibition of blepharospasm is marked from 0 to +++; The inhibition of blepharospasm is marked from 0 to +++; The inhibition of blepharospasm is marked from 0 to +++; conditions: male Swiss mice, before reserpine 5 mg/kg IP
Procedure: (Chen G., and Bohner B., (1961) J. pharmacol. Exptl. Therap. 131, 179).
Reserpine administered to mice in a dosage of 5 mg/kg intraperitoneally produces in the first few hours a more or less complete closure of the eyelids in most of the animals. The administration of certain products inhibits the blepharospasm caused by reserpine.
Male Swiss mice are distributed into batches of 10 mice and each experiment involves at least 3 batches:
a control batch that receives only the solvent and reserpine
a batch treated with a reference product: we selected Imipramine
a treated batch receiving the product being tested.
The experimental products are administered intraperitoneally either 30 minutes or 2 hours before the intraperitoneal injection of reserpine at a dosage of 5 mg/kg, in order to study their activity as a function of time.
The degree of ptosis for each eye and each animal is observed every 30 minutes for 4 to 5 hours, using RUBIN's score method. The activity of the product is determined by comparison with the result obtained with the treated control batch. The inhibition of blepharospasm is marked from 0 to +++.

[5] = system: attack caused by pentetrazol; test: Anti-convulsant action: attack caused by pentetrazol; format: in vivo; conditions: mice, 30 min before pentetrazol 125 mg/kg IP
Procedure: A convulsive attack is caused by pentetrazol which, when injected into mice intraperitoneally at a dosage of 125 mg/kg, produces 100% mortality in 5 to 7 minutes.
Mice, each weighing about 20 g, are given the product being studied intraperitoneally, thirty minutes before the administration of pentetrazol.

[6] = system: central nervous system; test: Activity on the central nervous system (overall conclusion of the pharmacological tests); format: in vivo; conditions: conclusion in words
Excerpt: This was investigated by observing the behaviour of animals, by studying the modifications in narcosis produced by hexobarbital and studying the anti-convulsant power.

[7] = system: epileptic attack by electric shock; test: Anti-convulsant action: electric shock; format: in vivo; conditions: Rattus norvegicus, 0.5 h, male rats, 30 min before 30 volts for 0.5 second, read-out: Electric shock: percentage protection (P); for responders at 200 mg/kg: 200 mg/kg IP; for responders at 100 mg/kg: 100 mg/kg IP
Procedure: The application of an electric current of 30 volts for 0.5 second to the cerebral hemispheres produces an epileptic attack.
Male rats each weighing 180 to 200 g receive intraperitoneally the solvent or the product being investigated. Thirty minutes later the animals are subjected to electric shocks. It is noted whether the attack is complete or incomplete, and the percentage protection (P) conferred by the product administered is determined.

[8] = Mus musculus, 0.5 h, 200 mg/kg IP, read-out: Pentrazole: percentage protection (P)

Hygroscopicity of hydrochloride [1]: hygroscopic
SMILES: OC(C=Cc1ccc2c(c1)OCO2)CCCN1CCCCC1 (centres unmarked) [AB 754]

SMILES: O=C(C=Cc1ccc2c(c1)OCO2)CN1CCOCC1 [compound 996]
change in vivo at 75 mg/kg ([2]; 75 mg/kg IP): 106%
LD50 [3]: 750 mg/kg
Inhibition of blepharospasm caused by reserpine ([4]; 75 mg/kg IP): +
responders at 75 mg/kg ([5]; Mus musculus, 0.5 h, 75 mg/kg IP, read-out: Pentrazole: percentage protection (P)): 0%
Usefulness as anti-depressants [6]: particularly useful as anti-depressants
responders at 75 mg/kg ([7]; 75 mg/kg IP): 50%

SMILES: OC(C=Cc1ccc2c(c1)OCO2)CN1CCOCC1 (centres unmarked) [compound 997]
change in vivo at 50 mg/kg ([2]; 50 mg/kg IP): 0%
LD50 [3]: 500 mg/kg
Inhibition of blepharospasm caused by reserpine ([4]; 50 mg/kg IP): +++
responders at 50 mg/kg ([5]; Mus musculus, 0.5 h, 50 mg/kg IP, read-out: Pentrazole: percentage protection (P)): 0%
Pentrazole: time of death as multiple of that (t) of the control group ([5]; 50 mg/kg IP): 2 t ×
Usefulness as anti-depressants [6]: particularly useful as anti-depressants
responders at 50 mg/kg ([7]; 50 mg/kg IP): 60%

SMILES: CC(C)=CCCC(=O)C=Cc1ccc2c(c1)OCO2 [compound 998]
change in vivo at 200 mg/kg [2]: 490%
LD50 [3]: 2000 mg/kg
Inhibition of blepharospasm caused by reserpine ([4]; 200 mg/kg IP): 0
responders at 200 mg/kg [5, 8]: 0%
responders at 200 mg/kg [7]: 30%

SMILES: CC(C)=CCCC(O)C=Cc1ccc2c(c1)OCO2 (centres unmarked) [compound 999]
change in vivo at 100 mg/kg [2]: 201%
LD50 [3]: 1000 mg/kg
Inhibition of blepharospasm caused by reserpine ([4]; 50 mg/kg IP): 0
responders at 100 mg/kg ([5]; Mus musculus, 0.5 h, 100 mg/kg IP, read-out: Pentrazole: percentage protection (P)): 0%
Pentrazole: time of death as multiple of that (t) of the control group ([5]; 100 mg/kg IP): 5 t ×
responders at 100 mg/kg [7]: 90%

SMILES: CC(C)=CC(=O)C=Cc1ccc2c(c1)OCO2 [compound 1003]
change in vivo at 200 mg/kg [2]: 223%
LD50 [3]: 2000 mg/kg
Inhibition of blepharospasm caused by reserpine ([4]; 200 mg/kg IP): 0
responders at 200 mg/kg [5, 8]: 0%
Pentrazole: time of death as multiple of that (t) of the control group ([5]; 200 mg/kg IP): 15 t ×
responders at 200 mg/kg [7]: 0%

SMILES: O=C(C=Cc1ccc2c(c1)OCO2)C1CCCCC1 [compound 1036]
change in vivo at 200 mg/kg [2]: 135%
LD50 [3]: 2000 mg/kg
responders at 200 mg/kg [5, 8]: 10%
Pentrazole: time of death as multiple of that (t) of the control group ([5]; 200 mg/kg IP): 2.6 t ×
responders at 200 mg/kg [7]: 0%

SMILES: OC(C=Cc1ccc2c(c1)OCO2)C1CCCCC1 (centres unmarked) [compound 1037]
change in vivo at 100 mg/kg [2]: 225%
LD50 [3]: 1000 mg/kg
responders at 100 mg/kg [7]: 0%

SMILES: CC(CN1CCOCC1)C(O)C=Cc1ccc2c(c1)OCO2 (centres unmarked) [compound 1156]
change in vivo at 60 mg/kg ([2]; 60 mg/kg IP): 79%
LD50 [3]: 600 mg/kg
Inhibition of blepharospasm caused by reserpine ([4]; 60 mg/kg IP): 0
responders at 60 mg/kg ([5]; Mus musculus, 0.5 h, 60 mg/kg IP, read-out: Pentrazole: percentage protection (P)): 10%
Pentrazole: time of death as multiple of that (t) of the control group ([5]; 60 mg/kg IP): 1.6 t ×
responders at 60 mg/kg ([7]; 60 mg/kg IP): 50%

SMILES: CC(CN1CCN(C)CC1)C(=O)C=Cc1ccc2c(c1)OCO2 (centres unmarked) [compound 1201]
change in vivo at 7.5 mg/kg ([2]; 7.5 mg/kg IP): 17%
LD50 [3]: 75 mg/kg
Inhibition of blepharospasm caused by reserpine ([4]; 7.5 mg/kg IP): ±
responders at 7.5 mg/kg ([5]; Mus musculus, 0.5 h, 7.5 mg/kg IP, read-out: Pentrazole: percentage protection (P)): 0%
Pentrazole: time of death as multiple of that (t) of the control group ([5]; 7.5 mg/kg IP): 2 t ×
responders at 7.5 mg/kg ([7]; 7.5 mg/kg IP): 10%

SMILES: CC(CN1CCN(C)CC1)C(O)C=Cc1ccc2c(c1)OCO2 (centres unmarked) [compound 1202]
change in vivo at 25 mg/kg ([2]; 25 mg/kg IP): 5%
LD50 [3]: 250 mg/kg
Inhibition of blepharospasm caused by reserpine ([4]; 25 mg/kg IP): 0
responders at 25 mg/kg ([5]; Mus musculus, 0.5 h, 25 mg/kg IP, read-out: Pentrazole: percentage protection (P)): 10%
Pentrazole: time of death as multiple of that (t) of the control group ([5]; 25 mg/kg IP): 2 t ×
responders at 25 mg/kg ([7]; 25 mg/kg IP): 10%

SMILES: CC(C(=O)C=Cc1ccc2c(c1)OCO2)N1CCOCC1 (centres unmarked) [compound 1321]
change in vivo at 85 mg/kg ([2]; 85 mg/kg IP): 227%
LD50 [3]: 850 mg/kg
Inhibition of blepharospasm caused by reserpine ([4]; 85 mg/kg IP): 0
responders at 85 mg/kg ([5]; Mus musculus, 0.5 h, 85 mg/kg IP, read-out: Pentrazole: percentage protection (P)): 20%
responders at 85 mg/kg ([7]; 85 mg/kg IP): 50%

SMILES: CC(C(O)C=Cc1ccc2c(c1)OCO2)N1CCOCC1 (centres unmarked) [compound 1340]
LD50 [3]: 400 mg/kg
responders at 40 mg/kg ([5]; Mus musculus, 0.5 h, 40 mg/kg IP, read-out: Pentrazole: percentage protection (P)): 10%
responders at 40 mg/kg ([7]; 40 mg/kg IP): 10%
